Reference: patent US12606578B2, “Crystal form of spirocyclic amine aryl phosphorus oxide compound and preparation method therefor” (Qilu Pharmaceutical Co., LTD., priority 2022, dated 2026)
Values after ≈ are worked out from the molar mass of the structure shown. Each block holds one molecule with its values, some of them ahead of it.

Tests used:
[1] = Hydroscopicity experiment (DVS water sorption/desorption); format: physicochemical
Text: Description of hydroscopicity characteristics and definition of hygroscopic weight gain (Chinese Pharmacopoeia 2020 Edition, General Chapter 9103, Guidelines for Hydroscopicity Trials for Pharmaceuticals): • Deliquescence: absorb enough water to form liquid; • Extremely hygroscopic: the hygroscopic weight gain is not less than 15.0%; • Hygroscopic: hygroscopic weight gain is less than 15.0% but not less than 2.0%; • Mild hygroscopic: hygroscopic weight gain is less than 2.0% but not less than 0.2%; • Non-or almost non-hygroscopic: the hygroscopic weight gain is less than 0.2%.
The hydroscopicity of the samples was determined using a DVS Intrinsic dynamic vapor sorption analyzer. The samples were placed in a peeled sample basket, the instrument weighed automatically, and the samples were analyzed according to the parameters in Table 4.
According to “Guidelines for Hydroscopicity Trials for Pharmaceuticals” in Chinese Pharmacopoeia 2020 Edition, the data of water sorption/desorption of the crystal form Q4 of the compound of Formula (I) were tested.

[2] = Flow ability test (bulk density, tap density, Carr index); format: physicochemical
Method: The tap density was measured by SVM203 Tapped Density Meter.
Bulk density and tap density of bulk drugs with different crystal forms and particle sizes were tested, and Carr index was calculated.
Therefore, compared with the crystal form A, the crystal form Q4 has obvious advantages in terms of powder mixing uniformity of bulk drugs and the preparation of solid preparations.

[3] = Equilibrium solubility in four media with XRPD of the solids; format: physicochemical; conditions: for Solubility / Crystal transformation before and after the solubility test: 37° C.; for Solubility / solubility at 24 h: 200 rpm; for Solubility / Crystal transformation before and after the solubility test / solubility at 24 h: 24 h; for Crystal transformation before and after the solubility test: four media, XRPD; for solubility at 24 h: 37 °C, thermodynamic from solid
Method: At 37° C., appropriate amounts of the crystal form Q4 and crystal form A of the compound of Formula (I) were taken and dispersed in water, artificial gastric fluid (SGF, Simulated Gastric Fluid), artificial intestinal fluid under fed state (FeSSIF, Fed State Simulated Intestinal Fluid) and artificial intestinal fluid under fasted state (FaSSIF, Fasted State Simulated Intestinal Fluid) respectively to prepare suspension, and after equilibration at 200 rpm for 24 h, the content (mg/mL) of the sample in the solution were tested by HPLC and the samples in the solution were tested by XRPD, respectively.

[4] = Stability test under high temperature, high humidity and light (HPLC purity, XRPD); format: physicochemical; conditions: for Purity: HPLC; for Crystal form: XRPD
Method: Determination of HPLC is performed by Waters e2695 high performance liquid chromatograph to analyze the samples.
The stability of the crystal form Q4 of the compound of Formula (I) under high temperature, high humidity and light conditions was investigated. After placing for 5 days and 10 days under specific conditions, purity was tested by HPLC, and XRPD was performed.

[5] = Particle size analysis (PSA); format: physicochemical
Method: Malvern's laser scattering particle size distribution analyzer was used to analyze the particle size of solid powder. An appropriate amount of solid powder was taken into a sampler, the samples were tested according to the parameters listed in Table 5, and the data was analyzed by Mastersizer-v3.60.

[6] = disclosed in reference CN110407877, 90% RH; cited from earlier work
[7] = bulk drug D90 69.2 μm (Q4), 62 μm (A)
[8] = bulk drugs of substantially the same particle size used in flow ability test

Evaluation of hydroscopicity ([1]; Chinese Pharmacopoeia 2020 criteria, weight gain at 80% RH): non- or almost non-hygroscopic
80% RH weight gain ([1]; DVS, 80% RH): 0.10%
90% RH weight gain ([1]; DVS, 90% RH): 0.12%
Bulk density [2, 7]: 0.28 g/mL
Carr index: (tap density-bulk density)/tap density [2, 7]: 24.32%
Evaluation (flow ability) [2, 7]: fair flow
Tap density [2, 7]: 0.37 g/mL
Bulk density ([2]; bulk drug D90 145.2 μm): 0.42 g/mL
Carr index: (tap density-bulk density)/tap density ([2]; bulk drug D90 145.2 μm): 17.65%
Evaluation (flow ability) ([2]; bulk drug D90 145.2 μm): good or medium (16 to 20%)
Tap density ([2]; bulk drug D90 145.2 μm): 0.51 g/mL
Solubility compared with the crystal form A ([3]; FaSSIF): better than that of the crystal form A
Solubility ([3]; FaSSIF (pH 6.5)): 5.75 mg/mL (≈ 10.1 mM)
Solubility ([3]; FeSSIF (pH 5.0)): 23.56 mg/mL (≈ 41.4 mM)
Solubility ([3]; SGF (pH 1.8)): 9.28 mg/mL (≈ 16.3 mM)
Solubility ([3]; Water): 0.04 mg/mL (≈ 0.0703 mM)
Related substances: Impurity LG RRT = 1.98 ([4]; 40° C.-5 D): 0.04%
Related substances: Impurity LO RRT = 0.89 ([4]; 40° C.-5 D): 0.01%
Related substances: Impurity LP RRT = 1.16 ([4]; 40° C.-5 D): 0.02%
Related substances: Impurity QA RRT = 0.95 ([4]; 40° C.-5 D): 0.01%
Purity ([4]; 40° C.-5 D): 99.88%
Crystal form ([4]; 40° C.-5 D): form Q4
Related substances: Impurity LG RRT = 1.98 ([4]; 40° C.-10 D): 0.04%
Related substances: Impurity LO RRT = 0.89 ([4]; 40° C.-10 D): 0.01%
Related substances: Impurity LP RRT = 1.16 ([4]; 40° C.-10 D): 0.03%
Related substances: Impurity QA RRT = 0.95 ([4]; 40° C.-10 D): 0.01%
Purity ([4]; 40° C.-10 D): 99.87%
Crystal form ([4]; 40° C.-10 D): form Q4
Related substances: Impurity LG RRT = 1.98 ([4]; 60° C.-5 D): 0.04%
Related substances: Impurity LO RRT = 0.89 ([4]; 60° C.-5 D): 0.01%
Related substances: Impurity LP RRT = 1.16 ([4]; 60° C.-5 D): 0.02%
Related substances: Impurity QA RRT = 0.95 ([4]; 60° C.-5 D): 0.01%
Purity ([4]; 60° C.-5 D): 99.86%
Crystal form ([4]; 60° C.-5 D): form Q4
Related substances: Impurity LG RRT = 1.98 ([4]; 60° C.-10 D): 0.04%
Related substances: Impurity LO RRT = 0.89 ([4]; 60° C.-10 D): 0.01%
Related substances: Impurity LP RRT = 1.16 ([4]; 60° C.-10 D): 0.02%
Related substances: Impurity QA RRT = 0.95 ([4]; 60° C.-10 D): 0.01%
Purity ([4]; 60° C.-10 D): 99.88%
Crystal form ([4]; 60° C.-10 D): form Q4
Related substances: Impurity LG RRT = 1.98 ([4]; 75RH-5 D): 0.04%
Related substances: Impurity LO RRT = 0.89 ([4]; 75RH-5 D): 0.01%
Related substances: Impurity LP RRT = 1.16 ([4]; 75RH-5 D): 0.01%
Related substances: Impurity QA RRT = 0.95 ([4]; 75RH-5 D): 0.01%
Purity ([4]; 75RH-5 D): 99.88%
Crystal form ([4]; 75RH-5 D): form Q4
Related substances: Impurity LG RRT = 1.98 ([4]; 75RH-10 D): 0.04%
Related substances: Impurity LO RRT = 0.89 ([4]; 75RH-10 D): 0.01%
Related substances: Impurity LP RRT = 1.16 ([4]; 75RH-10 D): 0.02%
Related substances: Impurity QA RRT = 0.95 ([4]; 75RH-10 D): 0.01%
Purity ([4]; 75RH-10 D): 99.88%
Crystal form ([4]; 75RH-10 D): form Q4
Related substances: Impurity LG RRT = 1.98 ([4]; 90RH-5 D): 0.04%
Related substances: Impurity LO RRT = 0.89 ([4]; 90RH-5 D): 0.02%
Related substances: Impurity LP RRT = 1.16 ([4]; 90RH-5 D): 0.01%
Related substances: Impurity QA RRT = 0.95 ([4]; 90RH-5 D): 0.01%
Purity ([4]; 90RH-5 D): 99.87%
Crystal form ([4]; 90RH-5 D): form Q4
Related substances: Impurity LG RRT = 1.98 ([4]; 90RH-10 D): 0.04%
Related substances: Impurity LO RRT = 0.89 ([4]; 90RH-10 D): 0.01%
Related substances: Impurity LP RRT = 1.16 ([4]; 90RH-10 D): 0.03%
Related substances: Impurity QA RRT = 0.95 ([4]; 90RH-10 D): 0.01%
Purity ([4]; 90RH-10 D): 99.83%
Crystal form ([4]; 90RH-10 D): form Q4
Related substances: Impurity LG RRT = 1.98 ([4]; Light-5 D): 0.04%
Related substances: Impurity LO RRT = 0.89 ([4]; Light-5 D): 0.03%
Related substances: Impurity LP RRT = 1.16 ([4]; Light-5 D): 0.02%
Related substances: Impurity QA RRT = 0.95 ([4]; Light-5 D): 0.01%
Purity ([4]; Light-5 D): 99.82%
Crystal form ([4]; Light-5 D): form Q4
Related substances: Impurity LG RRT = 1.98 ([4]; Light-10 D): 0.03%
Related substances: Impurity LO RRT = 0.89 ([4]; Light-10 D): 0.03%
Related substances: Impurity LP RRT = 1.16 ([4]; Light-10 D): 0.02%
Related substances: Impurity QA RRT = 0.95 ([4]; Light-10 D): 0.01%
Purity ([4]; Light-10 D): 99.86%
Crystal form ([4]; Light-10 D): form Q4
Related substances: Impurity LG RRT = 1.98 ([4]; Start): 0.03%
Related substances: Impurity LO RRT = 0.89 ([4]; Start): 0.01%
Related substances: Impurity LP RRT = 1.16 ([4]; Start): 0.02%
Related substances: Impurity QA RRT = 0.95 ([4]; Start): 0.01%
Purity ([4]; Start): 99.90%
Crystal form ([4]; Start): form Q4
Degradation / stability ([4]; high temperature, high humidity and light conditions, 5 and 10 days): no obvious degradation
D10 ([5]; PSA, Example 3 batch): 10.8 μm
D50 ([5]; PSA, Example 3 batch): 62.6 μm
D90 ([5]; PSA, Example 3 batch): 145.2 μm
Particle size of bulk D90 [5, 8]: 69.2 μm
Particle size of bulk D90 ([5]; larger particle size Q4 bulk drug used in flow ability test): 145.2 μm
Compound: COc1cc(N2CCC3(CCN(C)CC3)CC2)ccc1Nc1ncc(Cl)c(Nc2ccccc2P(C)(C)=O)n1 [Crystal form Q4]
Crystal transformation, XRPD before and after DVS test ([1]; before and after DVS test): no crystal transformation before and after the test
Hydroscopicity compared with the crystal forms A, B and C ([1]; hygroscopic weight gain comparison): less hydroscopicity than the crystal forms A, B and C
Flow ability compared with the crystal form A ([2]; substantially the same particle size): better flow ability compared with the crystal form A
Crystal transformation before and after the solubility test [3]: do not transform before and after the test

Compound: COc1cc(N2CCC3(CCN(C)CC3)CC2)ccc1Nc1ncc(Cl)c(Nc2ccccc2P(C)(C)=O)n1 [Crystal form B]
Weight gain under 90% RH humidity condition [6]: 0.70%

Compound: COc1cc(N2CCC3(CCN(C)CC3)CC2)ccc1Nc1ncc(Cl)c(Nc2ccccc2P(C)(C)=O)n1 [Crystal form C]
Weight gain under 90% RH humidity condition [6]: 0.62%

Bulk density [2, 7]: 0.48 g/mL
Carr index: (tap density-bulk density)/tap density [2, 7]: 31.43%
Evaluation (flow ability) [2, 7]: poor flow
Tap density [2, 7]: 0.70 g/mL
solubility at 24 h ([3]; fasted state simulated intestinal fluid (FaSSIF), pH 6.5, fassif, FaSSIF (pH 6.5)): 4.56 mg/mL (≈ 8.01 mM)
solubility at 24 h ([3]; fed state simulated intestinal fluid (FeSSIF), pH 5, fessif, FeSSIF (pH 5.0)): 23.6 mg/mL (≈ 41.5 mM)
solubility at 24 h ([3]; simulated gastric fluid (SGF), pH 1.8, simulated gastric fluid, SGF (pH 1.8)): 9.3 mg/mL (≈ 16.3 mM)
solubility at 24 h ([3]; water): 0.04 mg/mL (≈ 0.0703 mM)
Particle size of bulk D90 [5, 8]: 62 μm
Compound: COc1cc(N2CCC3(CCN(C)CC3)CC2)ccc1Nc1ncc(Cl)c(Nc2ccccc2P(C)(C)=O)n1 [Crystal form A, reference compound]
Crystal transformation before and after the solubility test [3]: do not transform before and after the test
Weight gain under 90% RH humidity condition [6]: 0.17%
